These results are taken from US8614230B2, “Derivatives of the aminated hydroxyquinoline class for treating cancers” (Biopharmed, priority 2007, dated 2013).

One series has as its system KB cells. Nature of the series: Cytotoxicity / cell viability on KB cells (colony-forming assay). It counts as cell-based, human. The settings on record: for Cytotoxicity on KB cells (percentage inhibition of cell viability): relative to reference without compound. As to the method:
Cancerous KB cells are also considered, to determine the cell viability (or survival rate). This cell viability is determined according to the teaching of Nicholson K. M. et al., British Journal of Cancer, 1999, 81, 423-430.
KB cells are human carcinoma cell lines, KB-3-1. These cells are maintained in a culture medium, “Dulbecco's modified Eagle's medium” (DMEM—Sigma), which contains 0.11 g/l of sodium pyruvate and 4.5 g/l of glucose, supplemented with 10% (v/v) fetal calf serum, penicillin (32 μg/ml) and streptomycin (50 μg/ml). The cells are cultured as monolayers and are incubated at 37° C. in a humid atmosphere (95% air/5% CO2).
The preceding KB cells are then incubated in 6- or 96-well plates in the presence of the test compounds of the invention, dissolved in dimethyl sulfoxide (DMSO). The content of surviving cells is measured by the “colony-forming assay” test, in which the cells are redistributed at a density of 100 to 300 cells per well in 24-well plates, for a period of 8 days, and are then stained with Leishman's reagent (0.2% in methanol). The colonies of more than 50 cells are counted visually under a microscope, the survival rate being expressed on the colonies formed in the presence of the compounds of the invention relative to cell colonies not treated with said compounds. The determination of the IC50 values (concentration of compounds in the reaction medium for which 50% of the tested tumor cells survived the treatment) enables comparison of the efficacy of these compounds.

In series [1] the test system is U87/GFP cells. The series is described as follows: Antiproliferative effect on U87/GFP cells (flash cytometry). The series is classed as cell-based, human. The settings on record: for inhibition at 10 µM / inhibition at 2 µM: read-out: Antiproliferative effect on U87/GFP cells: percentage inhibition. On the procedure: For the U-87/GFP cells, the control of cell proliferation and migration in the presence of the compounds (I) of the invention is performed via a colorimetric method (MTS) and is performed according to known standard protocols. The methodologies implemented use flash cytometry (Trophos S.A., Marseilles, France). The flash cytometry technique involves fluorescence, which consists of irradiating a compound at a set wavelength and of recording the fluorescence emitted at another wavelength. This technique is performed with a flash cytometer and adapted for 96-well test plates. The excitation and emission wavelengths in the context of use of this fluorescence are located in the 485-495 nm range. The measured fluorescence expresses the amount of cells surviving after treatment with the compounds of the invention. The publications by Luby-Phelps K. et al., J. Histochemistry and Cytometry, 2003, 51, 271-274 and Modarai B. et al., Circulation, 2005, 111, 2645-2653 may be mentioned by way of reference for the above methods.
The cells of the U87/GFP lines are cultured in 96-well plates according to a standard methodology described by Bajetto et al., Neurochemistry International, 2006, 43, 31-38 in the presence of different concentrations of the compounds of the invention.
The cell proliferation is determined and quantified according to standard methods known to those skilled in the art. A 100% proliferation is attributed to the untreated cells and a percentage less than 100% is obtained when the same cells are treated with the compounds of the invention.
(§1) The cell proliferation and migration are determined by imaging using a flash cytometer (Trophos S.A., Marseilles, France), and the calculations are performed using the “Metamorph 4.6” imaging signal processing software (Molecular Devices, USA), the use of which, which is known in the field, makes it possible to determine the above two effects independently of each other.

The subject of series [2] is U87/GFP cells. Nature of the series: Antimigratory effect on U87/GFP cells (scratch technique). The series is classed as cell-based, human. As to the method: The determination of the antimigratory activity of the compounds (I) of the invention on these same cell lines, cultured in MEM medium (Minimum Essential Medium) is performed via the “scratch” technique that consists in scratching a cell lawn using a micropipette cone. By comparison with these same cells not containing the compounds of the invention, the antimigratory effect is determined. A 100% migration is attributed to the untreated cells, whereas, as a function of the concentration of the compounds (I) of the invention, total stoppage of migration is determined by observation of the “scratch” remaining unfilled by the cell migration, by means of computer software.
as §1

For the next series, the system named is mice. Particulars: comparison value for anticancer drugs; cited from earlier work.
[3] abbreviates: Homo sapiens, KB, approximate value given in the description, read-out: cytotoxic activity IC50 on KB cells.
Setting [4] is: Homo sapiens, KB, first value of two experiments performed in parallel, read-out: Cytotoxicity on KB cells (IC50).
The mark [5] stands for this setting: Homo sapiens, KB, second value of two experiments performed in parallel, read-out: Cytotoxicity on KB cells (IC50).
Where [6] appears, read: concentration giving 80% inhibition of migration.
Setting [7] is: first value of two experiments performed in parallel, read-out: Cytotoxicity on KB cells (IC50).
Setting [8] is: second value of two experiments performed in parallel, read-out: Cytotoxicity on KB cells (IC50).
Setting [9] is: Homo sapiens, concentration giving 50% inhibition of proliferation.
Where [10] appears, read: concentration giving 50% inhibition of proliferation.

Read-outs that look alike come from different tables or passages of the source. A value given as a limit tells only on which side of the number the result lay.

Consider `CC(C)(C)OC(=O)N1CCCN(Cc2ccc(O)c3ncccc23)CCCN(C(=O)OC(C)(C)C)CCN(C(=O)OC(C)(C)C)CCC1` [I2, tri-tert-butyl 12-((8-hydroxyquinolin-5-yl)methyl)-1,4,8,12-tetraazacyclopentadecane-1,4,8-tricarboxylate], for which, in the series on KB cells (at 1 μM), the “Cytotoxicity on KB cells (percentage inhibition of cell viability)” value was 28% at 1 μM.

For the molecule `CC(C)(C)OC(=O)N1CCCN(C(=O)OC(C)(C)C)CCN(C(=O)OC(C)(C)C)CCCNC(Cc2ccc(O)c3ncccc23)CC1` (stereo not shown) [I3, tri-tert-butyl 11-((8-hydroxyquinolin-5-yl)methyl)-1,4,8,12-tetraazacyclopentadecane-1,4,8-tricarboxylate], the “Cytotoxicity on KB cells (percentage inhibition of cell viability)” value with KB cells (at 1 μM) worked out at 15% at 1 μM.

On to `Oc1ccc(CN2CCCNCCNCCCNCC2)c2cccnc12` [I4, 5-((1,4,8,11-tetraazacyclotetradecane-1-yl)methyl)quinolin-8-ol], for which the “Cytotoxicity on KB cells (percentage inhibition of cell viability)” value with KB cells (at 1 μM) was found to be 27% at 1 μM.

A word on the IC50: it is the concentration at which inhibition is half-maximal. In the case of `Oc1ccc(CN2CCCNCCN(Cc3ccc(CN4CCCNCCNCCCNCC4)cc3)CCCNCC2)c2cccnc12` [I7, 5-((8-(4-((1,4,8,11-tetraazacyclotetradecane-1-yl)methyl)benzyl)-1,4,8,11-tetraazacyclotetradecan-1-yl)methyl)quinolin-8-ol], the half-maximal inhibitory concentration (IC50) with KB cells (setting [3]) is around 100 nM; with KB cells (setting [4]), 122 nM; in the series with KB cells (setting [5]) it was 303 nM. Besides, in the series on KB cells (at 1 μM), the “Cytotoxicity on KB cells (percentage inhibition of cell viability)” value amounted to 93% at 1 μM. Further, the “Antiproliferative effect on U87/GFP cells: concentration at which activity is observed” value in the series on U87/GFP cells [1] (percentage not given) is 2 µM.

As to `Oc1ccc(CN2CCN(Cc3ccc(O)c4ncccc34)CC2)c2cccnc12` [I8, 5,5′-(piperazine-1,4-diylbis (methylene))diquinolin-8-ol], the IC50 was determined as 43 nM in the series with KB cells (setting [4]) and 32 nM in the series on KB cells (setting [5]). Also, the “Cytotoxicity on KB cells (percentage inhibition of cell viability)” value with KB cells (at 1 μM) is given as 94% at 1 μM.

Take `CC(C)(C)OC(=O)N1CCCN(C(=O)OC(C)(C)C)CCN(Cc2ccc(O)c3ncccc23)CCCN(Cc2ccc(O)c3ncccc23)CC1` [I9, di-tert-butyl 4,8-bis((8-hydroxyquinolin-5-yl)methyl)-1,4,8,11-tetraazacyclotetradecane-1,11-dicarboxylate]: the IC50 was around 400 nM in the series with KB cells (setting [3]), 398 nM in the series on KB cells (setting [4]) and 639 nM with KB cells (setting [5]). For the same molecule, in the series on KB cells (at 1 μM), the “Cytotoxicity on KB cells (percentage inhibition of cell viability)” value amounted to 77% at 1 μM.

As for `Oc1ccc(CN(Cc2ccccc2)Cc2ccc(O)c3ncccc23)c2cccnc12` [I12], the “Antimigratory effect on U87/GFP cells: percentage inhibition” value in the series with U87/GFP cells [2] (at 2 μM) was found to be 80%. The IC50 in the series on U87/GFP cells [2] (setting [6]) was determined as 2000 nM; in the series on KB cells (setting [7]), 1.5 nM; in the series with KB cells (setting [8]), 5 nM; in the series with U87/GFP cells [1] (concentration giving 30% inhibition of proliferation) it was 500 nM. In addition, the “Cytotoxicity on KB cells (percentage inhibition of cell viability)” value with KB cells (at 1 μM) was 93% at 1 μM. Besides, the “Antiproliferative effect on U87/GFP cells: percentage inhibition” value in the series with U87/GFP cells [1] (at 0.5 μM) amounted to 30%.

Regarding `Oc1ccc(CNCc2ccccc2)c2cccnc12` [I13, 5-((benzylamino)methyl)quinolin-8-ol], the IC50 was above 1000 nM with KB cells (setting [4]), 1300 nM in the series on KB cells (setting [5]) and 10000 nM in the series with U87/GFP cells [1] (setting [9]). In addition, the “Cytotoxicity on KB cells (percentage inhibition of cell viability)” value with KB cells (at 1 μM) is listed as 90% at 1 μM. Besides, the inhibition at 10 µM with U87/GFP cells [1] (Homo sapiens) stood at 50%.

`Cc1ccc(CNCc2ccc(O)c3ncccc23)cc1` [I16, 5-((4-methylbenzylamino)methyl)quinolin-8-ol]: the inhibition at 2 µM with U87/GFP cells [2] (Homo sapiens, at 2 μM, read-out: Antimigratory effect on U87/GFP cells: percentage inhibition) came out at 80%; in the series with U87/GFP cells [1] (Homo sapiens), 80%. Also, the IC50 worked out at 2000 nM in the series with U87/GFP cells [2] (setting [6]), 11000 nM in the series on KB cells (setting [4]), 10000 nM in the series with KB cells (setting [5]) and 2000 nM in the series with U87/GFP cells [1] (concentration giving 80% inhibition of proliferation). Further, in the series with KB cells (at 2 μM), the “Cytotoxicity on KB cells (percentage inhibition of cell viability)” value is listed as 50% at 2 μM.

Take `Oc1ccc(NCc2cccc3ccccc23)c2cccnc12` [I17, 5-(naphthalen-1-ylmethylamino)quinolin-8-ol]: the IC50 in the series on KB cells (setting [4]) was found to be 1000 nM; in the series with KB cells (setting [5]), 950 nM.

For the molecule `Oc1ccc(N(Cc2cccc3ccccc23)c2ccc(O)c3ncccc23)c2cccnc12` [I18, 5,5′-(naphthalen-1-ylmethylazanediyl)diquinolin-8-ol], the IC50 in the series on KB cells (setting [4]) came to 5 nM; in the series on KB cells (setting [5]) it was 4.5 nM; in the series on U87/GFP cells [1] (setting [9]), 2000 nM. For the same molecule, the inhibition at 2 µM with U87/GFP cells [1] (Homo sapiens) came to 50%.

As to `CC(NCc1ccc(O)c2ncccc12)c1ccccc1` (stereo not shown) [I33], the 50% inhibitory concentration (IC50) was determined as 1000 nM in the series with KB cells (setting [7]), 1100 nM in the series with KB cells (setting [8]) and 500 nM with U87/GFP cells [1] (setting [10]). The “Antiproliferative effect on U87/GFP cells: percentage inhibition” value in the series on U87/GFP cells [1] (at 0.5 μM) was determined as 50%.

With `Oc1ccc(CNCc2ccc(C(F)(F)F)cc2)c2cccnc12` [I34], the IC50 was 10000 nM in the series on KB cells (setting [7]), 9000 nM with KB cells (setting [8]) and 5000 to 10000 nM with U87/GFP cells [1] (setting [10]). Moreover, the “Antiproliferative effect on U87/GFP cells: percentage inhibition” value in the series with U87/GFP cells [1] (at 5-10 μM) came to 50%.

As to `Oc1ccc(CNCc2cccc(C(F)(F)F)c2)c2cccnc12` [I35], the half-maximal inhibitory concentration (IC50) with KB cells (setting [7]) turned out to be 200 nM; with KB cells (setting [8]), 220 nM.

For `CC(C)(C)OC(=O)N(Cc1cccc(C(F)(F)F)c1)Cc1ccc(O)c2ncccc12` [I36], the 50% inhibitory concentration (IC50) in the series with KB cells (setting [7]) was 1000 nM; in the series on KB cells (setting [8]) it was 1100 nM; with U87/GFP cells [1] (setting [10]), 5000 to 10000 nM. Further, in the series with U87/GFP cells [1] (at 5-10 μM), the “Antiproliferative effect on U87/GFP cells: percentage inhibition” value was found to be 50%.

As to `CC(C)(C)OC(=O)N(Cc1ccc(C(F)(F)F)cc1)Cc1ccc(O)c2ncccc12` [I37], the IC50 with KB cells (setting [7]) is 8000 nM; with KB cells (setting [8]), 9000 nM; in the series on U87/GFP cells [1] (setting [10]), 5000 to 10000 nM. Further, the “Antiproliferative effect on U87/GFP cells: percentage inhibition” value with U87/GFP cells [1] (at 5-10 μM) is 50%.

Take `CC(C)(C)OC(=O)N(Cc1ccccc1)Cc1ccc(O)c2ncccc12` [I38]: the 50% inhibitory concentration (IC50) in the series with KB cells (setting [7]) was 900 nM; in the series with KB cells (setting [8]), 1100 nM; in the series with U87/GFP cells [1] (setting [10]), 5000 to 10000 nM. In addition, the “Antiproliferative effect on U87/GFP cells: percentage inhibition” value with U87/GFP cells [1] (at 5-10 μM) worked out at 50%.

`CC(=O)O[C@H]1C(=O)[C@@]2(C)[C@H]([C@H](OC(=O)c3ccccc3)[C@]3(O)C[C@H](OC(=O)[C@H](O)[C@@H](NC(=O)c4ccccc4)c4ccccc4)C(C)=C1C3(C)C)[C@]1(OC(C)=O)CO[C@@H]1C[C@@H]2O` [Taxol]: the LD50 entry in the series on mice is “about 10 mg/kg”.

With `Cn1nnc2c(C(N)=O)ncn2c1=O` [Temodal ®, reference compound], the inhibition at 10 µM in the series with U87/GFP cells [2] (Homo sapiens, at 10 μM, read-out: Antimigratory effect on U87/GFP cells: percentage inhibition) is 50%; in the series with U87/GFP cells [1] (Homo sapiens) it was 50%. For the same molecule, the IC50 in the series on U87/GFP cells [2] (Homo sapiens, concentration giving 50% inhibition of migration) is 10000 nM; with U87/GFP cells [1] (setting [9]) it was 10000 nM.
